In US9504674B2, “TrkB agonists and methods of use” (EMORY UNIVERSITY, priority 2010, dated 2016):

These molecules were tested against T1, TrkB (Rattus norvegicus, UniProt Q63604) (assay: TrkB phosphorylation in primary rat cortical neurons (immunoblotting)). Details: 500 nM compound, 20 min, primary rat cortical neurons, immunoblotting.
T1 construct: endogenous in cells; host or cells: primary rat cortical neurons (E17 embryos, 13 DIV)
Format: cell-based
Protocol: (§1) Primary rat cortical neurons from E17 embryos (13 DIV) were treated with 500 nM various chemicals for 15 min. The neuronal cell lysates were collected and resolved on 10% SDS-PAGE. Immunoblotting was conducted with various antibodies. p-TrkB Y817 antibody was employed at 1:20000-40000 dilution.
as §1, with “days in vitro (DIV))” for “DIV)”, “1:20,000-40,000 dilution (top panel). Equal amount of TrkB was loaded in all of the samples (middle panel). P-Akt 473 ELISA analysis with the neuronal lysates (bottom panel).” for “1:20000-40000 dilution.”
7,8-dihydroxyflavone (7,8-DHF) is a small molecular TrkB agonist. Preliminary structure-activity relationship study (SAR) supports that 7,8-catechol moiety is essential for the agonistic effect by 7,8-DHF. To explore the structure-activity relationship (SAR) in depth, the TrkB stimulatory activity was examined by numerous flavonoid derivatives. The numeric positions and each ring's nomenclature are designated (FIG. 1A). Compounds were dissolved in DMSO, then diluted into […] with 1× PBS (final vehicle contains 10% DMSO/PBS) (FIG. 1B). Primary rat cortical neurons were treated with 500 nM compounds for 20 min. The cell lysates were analyzed by immunoblotting. […] Downstream activation of the TrkB target Akt was tightly correlated with TrkB activation patterns by these derivatives (FIG. 1C, bottom panel). As observed, the hydroxy groups on B ring can regulate 7,8-DHF's stimulatory activity on TrkB receptor. As 2′-hydroxy, especially 3′-hydroxy group, elevates the agonistic effect, whereas 4′-hydroxy group diminishes its stimulatory effect.
To compare the TrkB activation by these synthetic compounds, primary cortical cultures were prepared. Cortical neurons were treated with 500 nM of various compounds for 20 min and cell lysates were collected. […] Replacing the H-bond acceptor O atom with hydrogen bond donor NH abolishes its stimulatory effect. […] On the other hand, 7,8-DHF provoked TrkB activation with the minimal concentration of 100 nM (FIG. 2B, right panels). To further study 4′-DMA-7,8-DHF's kinetics on TrkB activation, primary neurons were treated for various time points. 4′-DMA-7,8-DHF swiftly activated TrkB as soon as 5 minutes following treatment. […] To compare the stimulatory effect on TrkB receptor in mouse brains, 1 mg/kg of the synthesized derivatives were injected into C57BL/6J mice. TrkB activation was monitored at different time points.
Additional compounds are listed as designated from a to m (FIG. 6A). The compounds were dissolved in DMSO, then diluted into 500 μM with 1× PBS (final vehicle contains 10% DMSO/PBS). The primary rat cortical neurons (13 DIV) were treated with 500 nM compounds for 20 min. The cell lysates were analyzed by immunoblotting. […] Moreover, p-Akt ELISA was monitored to quantitatively analyze the agonistic activities of these compounds.

T1 sequence (Q63604 32-821): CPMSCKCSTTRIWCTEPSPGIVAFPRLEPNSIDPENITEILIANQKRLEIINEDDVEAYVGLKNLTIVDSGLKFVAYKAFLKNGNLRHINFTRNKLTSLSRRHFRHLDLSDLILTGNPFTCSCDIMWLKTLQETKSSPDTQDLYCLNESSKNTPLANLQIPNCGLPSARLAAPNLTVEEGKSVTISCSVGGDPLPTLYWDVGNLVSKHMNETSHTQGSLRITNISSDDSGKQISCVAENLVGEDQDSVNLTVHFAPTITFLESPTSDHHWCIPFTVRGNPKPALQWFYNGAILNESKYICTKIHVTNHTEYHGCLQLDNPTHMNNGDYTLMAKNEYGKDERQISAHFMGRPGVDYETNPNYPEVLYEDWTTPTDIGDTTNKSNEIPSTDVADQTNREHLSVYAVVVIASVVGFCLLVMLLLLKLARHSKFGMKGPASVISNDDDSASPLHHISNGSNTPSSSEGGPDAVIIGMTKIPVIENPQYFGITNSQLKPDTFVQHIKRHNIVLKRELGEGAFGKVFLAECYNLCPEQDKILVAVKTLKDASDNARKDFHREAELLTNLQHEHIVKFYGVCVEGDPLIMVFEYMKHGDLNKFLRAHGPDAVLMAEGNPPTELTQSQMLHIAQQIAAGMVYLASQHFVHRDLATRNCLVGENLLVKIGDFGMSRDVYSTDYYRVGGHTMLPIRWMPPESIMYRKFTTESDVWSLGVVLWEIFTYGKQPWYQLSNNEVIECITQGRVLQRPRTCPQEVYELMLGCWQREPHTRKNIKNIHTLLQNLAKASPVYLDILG

TrkB activation (phosphorylation) compared to vehicle control | Molecule
stimulated TrkB activation | O=c1cc(-c2ccccc2)oc2c(O)c(O)cc(O)c12 [5,7,8-trihydroxyflavone]
barely activated TrkB | O=c1cc(-c2ccc(O)cc2)oc2c(O)c(O)ccc12 [7,8,4′-trihydroxyflavone, reference compound]
barely activated TrkB | COc1ccc(-c2cc(=O)c3ccc(O)cc3o2)cc1 [7-hydroxy-4′methoxyflavone, reference compound]
failed to provoke TrkB activation | O=c1cc(-c2ccc(F)cc2)[nH]c2c(O)c(O)ccc12 [#2, 2-(4-fluorophenyl)-7,8-dihydroxyquinolin-4(1H)-one]
strongly activated TrkB | O=c1cc(-c2cncnc2)oc2c(O)c(O)ccc12 [#4, 7,8-dihydroxy-2(pyrimidin-5-yl)-4H-chromen-4-one]

Further lines, the molecule ahead of its results:

Molecule | TrkB activation (phosphorylation) compared to vehicle control
O=c1c(O)c(-c2ccc(O)c(O)c2)oc2c(O)c(O)cc(O)c12 [3,5,7,8,3′,4′-hexahydroxylatedflavone, reference compound] | completely blocked TrkB phosphorylation
O=c1c(O)c(-c2ccccc2O)oc2c(O)c(O)ccc12 [3,7,8,2′-tetrahydroxyflavone] | stimulated TrkB activation
O=c1c(O)c(-c2ccccc2)oc2cc(O)ccc12 [3,7-dihydroxyflavone] | stimulated TrkB activation
O=c1cc(-c2cccc(O)c2)oc2cc(O)ccc12 [7,3′-dihydroxyflavone] | even more robust stimulatory effect on TrkB phosphorylation than the lead
O=c1cc(-c2ccccc2O)oc2c(O)c(O)ccc12 [7,8,2′-trihydroxyflavone] | stimulated TrkB activation
O=c1cc(-c2cccc(O)c2)oc2c(O)c(O)ccc12 [7,8,3′-trihydroxyflavone] | even more robust stimulatory effect on TrkB phosphorylation than the lead
COc1ccc2c(=O)cc(-c3ccccc3)oc2c1O [8-hydroxy-7-methoxyflavone, reference compound] | barely activated TrkB
O=c1cc(-c2ccccc2)[nH]c2c(O)c(O)ccc12 [#3, 7,8-dihydroxy-2-phenylquinolin-4(1H)-one] | failed to provoke TrkB activation

Same assay, conditions: BDNF 100 ng/ml, primary rat cortical neurons

TrkB activation (phosphorylation) | Molecule
strongly activated TrkB | BDNF: brain-derived neurotrophic factor, from Roche (protein, UniProt P23560 19-247, looked up) Neurotrophic factor BDNF …: APMKEANIRGQGGLAYPGVRTHGTLESVNGPKAGSRGLTSLADTFEHVIEELLDEDQKVRPNEENNKDADLYTSRVMLSSQVPLEPPLLFLLEEYKNYLDAANMSMRVRRHSDPARRGELSVCDSISEWVTAADKKTAVDMSGGTVTVLEKVPVSKGQLKQYFYETKCNPMGYTKEGCRGIDKRHWNSQCRTTQSYVRALTMDSKKRIGWRFIRIDTSCVCTLTIKRGR

Each molecule was assayed against T2, TrkB F616A (Mus musculus, UniProt P15209, F616A) (assay: Forced swim test in TrkB F616A knockin mice with or without 1NMPP1). Details: TrkB F616A knockin mice, control groups without TrkB agonist.
T2 construct: from tissue; host or cells: TrkB F616A knock-in mice (brain; whole animal in the forced swim test)
T2 sequence (P15209 32-821 F616A): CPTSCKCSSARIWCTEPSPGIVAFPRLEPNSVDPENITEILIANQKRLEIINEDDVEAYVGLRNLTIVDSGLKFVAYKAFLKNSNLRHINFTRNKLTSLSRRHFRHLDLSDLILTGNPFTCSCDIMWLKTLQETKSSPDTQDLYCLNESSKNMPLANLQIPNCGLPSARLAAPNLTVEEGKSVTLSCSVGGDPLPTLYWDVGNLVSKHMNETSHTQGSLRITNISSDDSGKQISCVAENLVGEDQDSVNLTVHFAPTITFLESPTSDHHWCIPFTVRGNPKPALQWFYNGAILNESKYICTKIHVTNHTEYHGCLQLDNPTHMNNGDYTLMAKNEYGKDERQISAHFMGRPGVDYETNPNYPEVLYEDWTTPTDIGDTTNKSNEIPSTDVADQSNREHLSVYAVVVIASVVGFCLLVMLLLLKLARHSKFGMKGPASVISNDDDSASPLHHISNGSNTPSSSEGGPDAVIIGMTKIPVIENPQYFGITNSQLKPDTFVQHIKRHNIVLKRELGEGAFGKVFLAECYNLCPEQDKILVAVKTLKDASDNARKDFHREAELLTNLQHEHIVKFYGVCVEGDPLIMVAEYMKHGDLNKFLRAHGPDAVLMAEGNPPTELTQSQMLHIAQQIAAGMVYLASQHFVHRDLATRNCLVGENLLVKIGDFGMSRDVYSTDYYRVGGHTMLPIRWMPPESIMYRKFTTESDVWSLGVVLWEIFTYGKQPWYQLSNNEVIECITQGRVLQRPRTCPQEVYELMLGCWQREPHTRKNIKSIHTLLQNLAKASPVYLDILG
Format: in vivo
Protocol: Male TrkB knockin mice were given the regular drinking water or 1NMPP1 (25 μM) containing drinking water one day before we started to inject the drugs and sustained throughout the whole experiment. The indicated control (saline) and drugs were administrated for 5 days. […] None of the drugs produced a significant change in 1NMPP1 treated TrkB KI mice (n=6 to 7 mice) as compared to control.
TrkB F616A knockin mice were used to assess whether the behavior responses by 7,8-DHF and its derivative is mediated by TrkB receptor. Transgenic mice were subjected to saline or 1NMPP1 pretreatment, respectively.

immobility time, 1NMPP1 treated versus saline control group | Molecule
No significant difference | CC(C)(C)n1nc(Cc2cccc3ccccc23)c2c(N)ncnc21 [1NMPP1]
